Reference: patent US11142529B2 (priority 2013, dated 2021)

Columns and labels:
[1] = system: aged-impaired (AI) rats; assay: Morris water maze behavioral task (Example 109); type: in vivo, rat; settings: 100 μg ICV
Protocol: The effects of 6,6 dimethyl-3-(3-hydroxypropyl)thio-1-(thiazol-2-yl)-6,7-dihydro-2-benzothiophen-4(5H)-one on the in vivo spatial memory retention of aged-impaired (AI) rats were assessed in a Morris water maze behavioral task. A water maze is a pool surrounded with a novel set of patterns relative to the maze.
Cognitively impaired aged rats were implanted unilaterally with a cannula into the lateral ventricle. Stereotaxic coordinates were 1.0 mm posterior to bregma, 1.5 mm lateral to midline, and 3.5 mm ventral to the skull surface. After about a week of recovery, the rats were pre-trained in a water maze for 2 days (6 trials per day) to locate a submerged escape platform hidden underneath the surface of the pool, in which the escape platform location varied from day to day. No intracerebroventricular (ICV) infusion was given during pre-training.
After pre-training, rats received ICV infusion of either 100 μg 6,6 dimethyl-3-(3-hydroxypropyl)thio-1-(thiazol-2-yl)-6,7-dihydro-2-benzothiophen-4(5H)-one (n=6) in 5 μl DMSO or vehicle DMSO (n=5) 40 min prior to water maze training and testing. Training consisted of 8 trials per day for 2 days where the hidden escape platform remained in the same location. Rats were given 60 seconds to locate the platform with a 60 seconds inter-trial interval. The rats were given a probe test (120 seconds) 24 hr after the end of training where the escape platform was removed. During the training, there were 4 blocks, where each block had 4 training trials.
During a test trial 24 hr after training, the escape platform was removed. The search/swim pattern of the rats was used to measure whether the rats remember where the escape platform was located during pre-trial training in order to test for the long-term memory of the rats. In this trial, “target annulus” is a designated area 1.5 times the size of the escape platform around the area where the platform was located during pre-trial training. “Opposite annulus” is a control area of the same size as the size of the target annulus, which is located opposite to the target annulus in the pool. If the rats had good long term memory, they would tend to search in the area surrounding the location where the platform was during the pre-trial training (i.e., the “target” annulus; and not the “opposite” annulus). “Time in annulus” is the amount of time in seconds that the rat spent in the target or opposite annulus area. “Number (#) of crossings” in annulus is the number of times the rat swam across the target or opposite annulus area.

[2] = target: T1, GABAA receptors (α5β2γ2) (Homo sapiens, UniProt P18507+P31644); assay: Positive allosteric modulator activity, potentiation of EC20 GABA current in oocytes; type: cell-based; settings: read-out: GABA α5 functional potentiation
T1 construct: expressed in transfected cells; host or cells: oocytes injected with a mix of alpha, beta and gamma cDNA (1:1:10 by weight)
Protocol: On day 1, 1 ng/32 nL of GABAA […] cDNA was injected into one oocyte. Test starts on day 2. The cDNA injected to the oocytes was a mix of alpha, beta and gamma, their ratio is 1:1:10 (by weight) and the total weight of the mixed 3 subunits to be injected in one oocyte was 1 ng in 32 nl volume. The injected oocytes can also be tested on day 3. In such case, the cDNA amount injected to the oocytes should be reduced by 20%.
1). 8 oocytes were placed in 8 chambers of OpusXpress and superfused with Modified Barth's Saline (MBS) at 3 mL/min. Glass electrodes back-filled with 3M KCl (0.5-3 megaohms) were used.
3). […] Oocytes were washed with MBS for 5-10 min.
2). […] Divide Itest by IGABA to obtain potentiation (%).
3). Discard all tested oocytes, new oocytes were used and the above steps 1) and 2) were repeated to test second concentration of the same compound. Each oocyte was used for only one concentration test for a single test compound. The steps were repeated for other test compounds.

[3] = target: T2, α5β3γ2 GABAA receptors (Homo sapiens, UniProt P18507+P31644); assay: Binding activity of test compounds on GABAAR ([3H]Ro15-1788 inhibition, Ltk cell membranes)
T2 construct: membranes
Protocol: The binding was performed on Ltk cells stably expressing GABAA receptors: α1β1γ2, α2β3γ2, α3β3γ2 and α5β3γ2 (provided by Merck Co., NJ, USA). Cells were seeded in 100 mm culture plates in DMEM/F12 medium containing 10% serum and antibiotics in 5% C02 and allowed to grow for 1-2 days. GABAAR expression was then induced by dexamethasone as follows: 0.5 μM for 1 day for α5 containing and 2 μM for 3 days for α1, α2 and α3 containing GABAARs. After induction, cells were collected by scraping into Dulbecco's Phosphate buffered saline (DPBS, pH 7.4, Invitrogen, Carlsbad, Calif., USA) and centrifuged at 150×g for 10 min. The pellet was washed twice by re-suspension and centrifugation. The cell pellets from at least 5 different preps were combined, suspended in the binding assay buffer (50 mM KH2PO4; 1 mM EDTA; 0.2 M KCl, pH 7.4) and membranes prepared by sonication (3-5 times, 30 sec) using Branson Sonifier 150 (G.Heinmann, Germany). Protein content was determined using BCA assay (Bio-Rad Labs, Reinach, Switzerland) with Bovine Serum Albumin (Sigma Aldrich, St. Louis, Mo., USA) as the standard. Aliquots were prepared and stored at −20° C. for further use in binding assays.
Saturation binding curves were obtained by incubating membranes with increasing concentrations (0.01-8 nM) of [^3H]Ro15-1788 (Flumazepil, 75-85 Ci/mmol, PerkinElmer, MA, USA), with nonspecific binding measured in the presence of 10 μM diazepam.
All binding assays were performed for 1 h at 4° C. in assay buffer. The total assay volume was 0.5 ml containing 0.2 mg/ml protein for α5 and 0.4 mg/ml for α1, α2, and α3 containing GABAAR membranes. Incubations were terminated by filtration through GF/B filters using a 24-Cell Harvestor (Brandel, Gaithersburg, Md., USA) followed by 3 washes with ice-cold assay buffer. Filters were transferred to scintillation vials, 5 ml scintillation liquid added, vortex-mixed and kept in dark. Next day, radioactivity was obtained using a scintillation counter (Beckman Coulter, Brea, Calif., USA). All assays were performed in triplicate.
Saturation and inhibition curves were obtained using GraphPad Prism software (GraphPad Software, Inc., CA, USA).

[4] = system: α5-containing GABAA receptor; type: in vivo, rat; settings: 0.01-10 mg/kg, i.v.
[5] = target: T3, α5-containing GABAA receptor (Rattus norvegicus, UniProt P18508+P19969); type: in vivo; settings: i.v.; for effect on Ro 15-4513 binding in hippocampus: 0.01-10 mg/kg
T3 construct: occupancy in the hippocampus (a region of high GABAAα5 receptor density); from tissue; host or cells: rat brain in vivo; hippocampus versus cerebellum

[6] = target: T4, GABAAα5 receptor (Rattus norvegicus, UniProt P18508+P19969); assay: GABAA α5 receptor occupancy with Ro 15-4513 tracer (Example 107B); type: in vivo, Long Evans rats
T4 construct: occupancy in the hippocampus (a region of high GABAAα5 receptor density); from tissue; host or cells: rat brain in vivo; hippocampus versus cerebellum
Text: Food and water were available ad libitum.

[7] = system: MAM-treated rats; settings: cited from earlier work
[8] = system: aged-impaired (AI) rats; assay: Radial Arm Maze (RAM) behavioral task, four-hour delay (Example 108); type: in vivo, rat
Protocol: The same experiment was repeated using the same vehicle control and doses of ethyl 3-methoxy-7-methyl-9H-benzo[f]imidazo[1,5-a][1,2,4]triazolo[4,3-d][1,4]diazepine-10-carboxylate, where the vehicle control was tested 5 times, the 3 mg/kg dose of ethyl 3-methoxy-7-methyl-9H-benzo[f]imidazo[1,5-a][1,2,4]triazolo[4,3-d][1,4]diazepine-10-carboxylate was tested 4 times, and the other doses of ethyl 3-methoxy-7-methyl-9H-benzo[f]imidazo[1,5-a][1,2,4]triazolo[4,3-d][1,4]diazepine-10-carboxylate were tested twice.
Parametric statistics (paired t-tests) was used to compare the retention test performance of the AI rats in the four-hour delay version of the RAM task in the context of different doses of ethyl 3-methoxy-7-methyl-9H-benzo[f]imidazo[1,5-a][1,2,4]triazolo[4,3-d][1,4]diazepine-10-carboxylate and vehicle control (see FIG. 5).

[9] = probe test 24 hr after training
[10] = vehicle then tracer 1 μg/kg i.v.

T1 sequence (P31644 32-462): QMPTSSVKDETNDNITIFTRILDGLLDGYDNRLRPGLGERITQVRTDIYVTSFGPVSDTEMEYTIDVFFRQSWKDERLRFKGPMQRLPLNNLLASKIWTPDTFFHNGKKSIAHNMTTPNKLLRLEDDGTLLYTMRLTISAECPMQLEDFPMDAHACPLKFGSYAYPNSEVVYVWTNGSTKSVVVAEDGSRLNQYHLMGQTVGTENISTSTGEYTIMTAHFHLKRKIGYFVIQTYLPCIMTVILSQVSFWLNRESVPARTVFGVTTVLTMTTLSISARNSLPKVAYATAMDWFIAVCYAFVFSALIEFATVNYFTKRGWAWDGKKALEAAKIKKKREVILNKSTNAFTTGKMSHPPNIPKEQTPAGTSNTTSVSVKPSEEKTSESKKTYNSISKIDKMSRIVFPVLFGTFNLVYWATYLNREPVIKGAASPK
T1 sequence (P47870 25-512 partner limits assumed): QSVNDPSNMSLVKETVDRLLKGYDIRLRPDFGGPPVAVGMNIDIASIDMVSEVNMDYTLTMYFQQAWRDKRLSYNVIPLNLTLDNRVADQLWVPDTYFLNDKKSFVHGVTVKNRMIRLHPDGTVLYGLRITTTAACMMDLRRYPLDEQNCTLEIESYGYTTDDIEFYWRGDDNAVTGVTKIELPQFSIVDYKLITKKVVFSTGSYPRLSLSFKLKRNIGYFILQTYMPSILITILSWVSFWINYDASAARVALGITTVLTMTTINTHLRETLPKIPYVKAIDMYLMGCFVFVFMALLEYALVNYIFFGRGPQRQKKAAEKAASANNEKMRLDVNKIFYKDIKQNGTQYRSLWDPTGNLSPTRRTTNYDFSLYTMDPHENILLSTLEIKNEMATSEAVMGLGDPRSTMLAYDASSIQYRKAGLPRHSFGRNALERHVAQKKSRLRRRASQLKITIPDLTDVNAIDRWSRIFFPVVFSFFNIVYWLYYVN
T1 sequence (P18507 40-475): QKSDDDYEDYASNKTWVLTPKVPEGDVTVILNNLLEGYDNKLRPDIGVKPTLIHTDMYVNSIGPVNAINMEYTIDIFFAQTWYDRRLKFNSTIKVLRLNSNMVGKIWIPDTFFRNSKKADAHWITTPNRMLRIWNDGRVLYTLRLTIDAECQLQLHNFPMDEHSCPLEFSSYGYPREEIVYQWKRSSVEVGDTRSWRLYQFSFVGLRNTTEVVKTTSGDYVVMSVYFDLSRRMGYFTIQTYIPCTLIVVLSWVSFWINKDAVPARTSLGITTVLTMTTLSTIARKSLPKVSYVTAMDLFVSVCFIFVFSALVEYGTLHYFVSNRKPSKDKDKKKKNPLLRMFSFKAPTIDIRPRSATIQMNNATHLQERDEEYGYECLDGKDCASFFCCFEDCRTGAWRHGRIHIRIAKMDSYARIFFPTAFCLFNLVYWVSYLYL
T2 sequence (P31644 32-462): as the sequence (P31644 32-462) above
T2 sequence (P28472 26-473 partner): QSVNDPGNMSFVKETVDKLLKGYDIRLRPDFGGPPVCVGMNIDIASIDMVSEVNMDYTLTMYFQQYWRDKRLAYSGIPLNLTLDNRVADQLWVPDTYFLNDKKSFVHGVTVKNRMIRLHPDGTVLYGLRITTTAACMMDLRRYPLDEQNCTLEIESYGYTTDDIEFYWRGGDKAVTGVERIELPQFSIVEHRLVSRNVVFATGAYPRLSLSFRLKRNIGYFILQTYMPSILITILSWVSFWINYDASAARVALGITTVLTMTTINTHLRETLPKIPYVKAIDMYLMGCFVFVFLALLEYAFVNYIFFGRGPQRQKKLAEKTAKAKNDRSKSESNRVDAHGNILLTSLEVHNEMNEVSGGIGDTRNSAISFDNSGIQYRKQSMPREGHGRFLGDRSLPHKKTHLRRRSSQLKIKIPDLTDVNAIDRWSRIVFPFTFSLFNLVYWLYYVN
T2 sequence (P18507 40-475): as the sequence (P18507 40-475) above
T4 sequence (P19969 32-464 limits assumed): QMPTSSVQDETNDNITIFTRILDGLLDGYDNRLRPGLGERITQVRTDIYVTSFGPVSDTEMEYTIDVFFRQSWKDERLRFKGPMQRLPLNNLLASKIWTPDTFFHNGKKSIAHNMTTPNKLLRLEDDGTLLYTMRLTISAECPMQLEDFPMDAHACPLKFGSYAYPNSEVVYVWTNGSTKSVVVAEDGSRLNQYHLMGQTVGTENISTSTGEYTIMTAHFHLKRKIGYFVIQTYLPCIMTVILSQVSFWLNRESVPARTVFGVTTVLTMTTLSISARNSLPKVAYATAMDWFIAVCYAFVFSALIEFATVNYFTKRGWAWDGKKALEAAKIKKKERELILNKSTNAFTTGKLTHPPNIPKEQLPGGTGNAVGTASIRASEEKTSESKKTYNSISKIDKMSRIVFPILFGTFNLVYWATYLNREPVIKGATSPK
T4 sequence (P18508 39-466): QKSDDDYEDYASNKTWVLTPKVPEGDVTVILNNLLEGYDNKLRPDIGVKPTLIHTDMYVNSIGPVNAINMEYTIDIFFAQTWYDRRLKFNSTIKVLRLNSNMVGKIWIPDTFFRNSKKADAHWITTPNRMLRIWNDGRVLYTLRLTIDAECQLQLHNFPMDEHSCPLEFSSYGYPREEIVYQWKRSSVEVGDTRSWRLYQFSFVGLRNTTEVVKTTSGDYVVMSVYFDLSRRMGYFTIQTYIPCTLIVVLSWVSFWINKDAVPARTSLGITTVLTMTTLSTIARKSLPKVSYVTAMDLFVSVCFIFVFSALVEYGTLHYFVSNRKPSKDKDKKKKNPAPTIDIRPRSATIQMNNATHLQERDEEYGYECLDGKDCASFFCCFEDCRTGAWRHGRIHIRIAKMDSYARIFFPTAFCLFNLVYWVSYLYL
T3 sequence (P19969 32-464 limits assumed): as the sequence (P19969 32-464 limits assumed) above
T3 sequence (P18508 39-466): as the sequence (P18508 39-466) above

Structure (SMILES)	activation at 0.1 µM [2] [%]	Ki [3] [nM]	further results
CC1(C)CC(=O)c2c(SCCCO)sc(-c3nccs3)c2C1 [6,6 dimethyl-3-(3-hydroxypropyl)thio-1-(thiazol-2-yl)-6,7-dihydro-2-benzothiophen-4(5H)-one]	–	–	learning of the water maze task [1]: improved the learning; long-term memory in the water maze task [1]: improved the long-term memory; number of crossings of target annulus compared to opposite annulus [1, 9]: more often; time in target annulus compared to opposite annulus [1, 9]: spent significantly more time in the target annulus; time to find the escape platform (escape latency) ([1]; training block 1): about 24 seconds; time to find the escape platform (escape latency) ([1]; training block 4): about 9.6 seconds
Cc1nnn2c1Cc1c(-c3noc(C(C)C)n3)ncn1-c1ccc(F)cc1-2 [Compound 149]	> 50	< 99	–
Cc1nnn2c1Cc1c(C(=O)OC(C)C)ncn1-c1ccccc1-2 [Compound 153]	20 to 49	< 99	–
CCc1nc(-c2ncn3c2Cc2c(C)nnn2-c2cc(F)ccc2-3)no1 [Compound 155]	20 to 49	< 99	–
CCc1nc(-c2ncn3c2Cn2c(COc4ccccc4)nnc2-c2cc(F)ccc2-3)no1 [Compound 158]	20 to 49	< 99	–
Cc1nnn2c1Cc1c(-c3noc(C(C)(C)C)n3)ncn1-c1ccc(F)cc1-2 [Compound 160]	> 50	< 99	–
COc1ccc2c(c1)-c1nnc(COc3ccccc3)n1Cc1c(-c3noc(C)n3)ncn1-2 [Compound 162]	20 to 49	< 99	–
COc1ccc2c(c1)-c1nnc(COc3ccc(F)cc3)n1Cc1c(-c3noc(C)n3)ncn1-2 [Compound 163]	20 to 49	< 99	–
COc1ccc2c(c1)-c1nnc(COc3ccccc3)n1Cc1c(-c3noc(C(C)C)n3)ncn1-2 [Compound 171]	> 50	< 99	–
COc1ccc2c(c1)-c1nnc(COc3ccc(F)cc3)n1Cc1c(-c3noc(C(C)C)n3)ncn1-2 [Compound 172]	> 50	< 99	–
CCOCc1nnc2n1Cc1c(-c3noc(C(C)C)n3)ncn1-c1ccc(OC)cc1-2 [Compound 173]	> 50	< 99	–
COc1ccc2c(c1)-c1nnc(COc3ccccc3F)n1Cc1c(-c3noc(C(C)C)n3)ncn1-2 [Compound 174]	> 50	< 99	–
COc1ccc2c(c1)-c1nnc(COc3ccccc3Cl)n1Cc1c(-c3noc(C(C)C)n3)ncn1-2 [Compound 175]	20 to 49	< 99	–
COc1ccc2c(c1)-c1nnc(COc3cccnc3)n1Cc1c(-c3noc(C(C)C)n3)ncn1-2 [Compound 176]	> 50	< 99	–
COc1ccc2c(c1)-c1nnc(COc3cccc4ccccc34)n1Cc1c(-c3noc(C(C)C)n3)ncn1-2 [Compound 177]	> 50	< 99	–
COc1ccc2c(c1)-c1nnc(COC3CCCC3)n1Cc1c(-c3noc(C(C)C)n3)ncn1-2 [Compound 178]	> 50	< 99	–
COc1ccc2c(c1)-c1nnc(COc3cccc(F)c3)n1Cc1c(-c3noc(C(C)C)n3)ncn1-2 [Compound 179]	> 50	< 99	–
CCOC(=O)c1ncn2c1Cn1c(C)nnc1-c1cc(OC)ccc1-2 [Ethyl 3-methoxy-7-methyl-9H-benzo[f]imidazo[1,5-a][1,2,4]tri]	–	–	effect on cerebellum levels of Ro 15-4513 [4]: did not affect binding; effect on Ro 15-4513 binding in hippocampus [5]: blocked the binding
CCOC(=O)c1ncn2c1CN(C)C(=O)c1cc(N=[N+]=[N-])ccc1-2 [Ro 15-4513]	–	–	Ro 15-4513 level in hippocampus compared with cerebellum ([6]; tracer 1 μg/kg i.v.): > 5 fold; level of Ro 15-4513 in cerebellum [6, 10]: 0.36 ± 0.02 ng/g; level of Ro 15-4513 in hippocampus [6, 10]: 1.93 ± 0.05 ng/g
C#Cc1ccc2c(c1)C(c1ccccc1F)=N[C@H](C)c1c(C(=O)OCC)ncn1-2 [SH-053-2′F—R—CH3]	–	–	increased locomotor response to amphetamine in MAM-treated rats ([7]; rat, in vivo): is reduced; cortical-evoked responses of HPC neurons ([7]; saline-treated and MAM-treated animals): diminished cortical-evoked responses
CCOC(=O)c1ncn2c1Cn1c(C)nnc1-c1cc(OC)ccc1-2 [ethyl 3-methoxy-7-methyl-9H-benzo[f]imidazo[1,5-a][1,2,4]tri]	–	–	memory performance relative to vehicle control ([8]; 3 mg/kg, t(7)=4.13, p=0.004, or t(7)=3.08, p=0.018): significantly improved memory performance; memory performance relative to vehicle control ([8]; 10 mg/kg, t(7)=2.82, p=0.026): significantly improved memory performance; effect on cerebellum levels of Ro 15-4513 [4]: without affecting; effect on Ro 15-4513 binding in hippocampus [5]: reduced Ro 15-4513 binding in hippocampus; α5-containing GABAA receptor occupancy ([5]; 10 mg/kg): > 90%
